Test results taken from patent US10172549B2, “Methods of facilitating positioning of electrodes” (Cardionomic, Inc., priority 2016, dated 2019).

Tested on: right ventricle contractility and left ventricle contractility
Experiment: Heartbeat-by-heartbeat correlation of right and left ventricle contractility after a change, max(dP/dt) from pressure sensors as surrogate for contractility
Assay type: in vivo, ovine
Details: after injection
Excerpt: The correlation was a heartbeat-by-heartbeat analysis. Pressure measurements, taken by a Millar catheter comprising a MEMS pressure sensor, in units of max(dP/dt) was used as a surrogate for contractility.
The first change, a dobutamine injection, provided a very high contractility increase greater than 500%. The average correlation between right ventricle contractility and left ventricle contractility was very good at 0.91, where 1.00 is a perfect correlation. Accordingly, if a subject is given a dobutamine injection, measuring changes to right ventricle contractility can provide accurate information about changes to left ventricle contractility. The first change was repeated three times.
The second change, calcium injection at 5 mL, provided a contractility increase of about 20%. […] The average correlation between right ventricle contractility and left ventricle contractility using a Millar (MEMS) sensor on a catheter was very good at 0.91. The average correlation between right ventricle contractility and left ventricle contractility using a fluid-filled lumen of a Swan-Ganz catheter in communication with an external pressure sensor was also very good at 0.87. Accordingly, under certain circumstances such as measurement of an animal (normal, non-HF ovine model) model, if a subject is given a calcium injection, measuring changes to right ventricle contractility with a MEMS sensor or a fluid filled lumen can provide accurate information about changes to left ventricle contractility.
The fourth change, neurostimulation as described herein, provided a contractility increase of about 28%. The correlation between right ventricle contractility and left ventricle contractility was very good at 0.90. Accordingly, if a subject is given neurostimulation, measuring changes to right ventricle contractility can provide accurate information about changes to left ventricle contractility. […] Thereafter, the left ventricle contractility tapered off logarithmically or exponentially, but the right ventricle contractility decreased very slowly. These differences help to show why the correlation between left ventricle contractility and right ventricle contractility are poorly correlated for calcium injections. The fourth change was not repeated.

## calcium [Calcium Injection]
  Contractility % Increase: ~20%
Listed as calcium injection
  Contractility % Increase: about 20%

## CC(CCc1ccc(O)cc1)NCCc1ccc(O)c(O)c1 (stereo not shown) [Dobutamine Injection, dobutamine]
  Contractility % Increase: >500%
Listed as dobutamine injection
  Contractility % Increase: greater than 500%
